Measured values reported in patent US20060205599A1, “Herbicide combinations comprising specific sulfonamides” (Bayer CropScience GmbH, priority 2003, published 2006).

How the values were obtained:
[1] = system: Triticum aestivum; type: in vivo; details: field trial, natural outdoor conditions; visual score about 4 weeks after application vs untreated control, mean of 2-4 plots; application rate g of active substance/hectare: A 5, B 30, C 250, A + B 5 + 30, A + B + C 5 + 30 + 250
Description: The seeds or rhizome pieces of the harmful plants and the useful plants were laid out or were present in the soil, and they were grown under natural outdoor conditions.
During scoring, damage and development of all above-ground parts of plants was assessed. […] In each case, the mean score of 2-4 plots was calculated.

[2] = system: Veronica hederifolia; assay: Herbicidal action (field trials), visual scoring of harmful plant; type: in vivo; details: field trial, natural outdoor conditions; visual score about 4 weeks after application vs untreated control (100% = all plants died), mean of 2-4 plots; application rate g of active substance/hectare: A 5, B 30, C 250, A + B 5 + 30, A + B + C 5 + 30 + 250
Description: The seeds or rhizome pieces of the harmful plants and the useful plants were laid out or were present in the soil, and they were grown under natural outdoor conditions. Treatment with the active compounds or active compound combinations was carried out […] before and/or after the emergence of the plants, generally at the 2- to 4-leaf stage, in various dosages using a water application rate of 100 to 400 l/ha (converted).
After the application (about 4 weeks after the application), the effectiveness of the active compounds or active compound combinations was scored visually by comparing the treated plots to untreated control plants. During scoring, damage and development of all above-ground parts of plants was assessed. Scoring was carried out using a percentage scale (100% effect=all plants had died; 50% effect=50% of the plants and the green parts of the plants have died; 0% effect=no effect observed=like control plant). In each case, the mean score of 2-4 plots was calculated.
The results are shown in the table below; the effect of the individual application of active compounds (A+B) and C being stated in brackets.

Compound	Triticum aestivum % damage [1]	Veronica hederifolia % effect [2]
COC(=O)c1ccc(CNS(C)(=O)=O)cc1S(=O)(=O)NC(=O)Nc1nc(OC)cc(OC)n1 [mesosulfuron-methyl, methyl 2-[3-(4,6-dimethoxypyrimidin-2-yl)ureidosulfonyl]-4-methanesulfonaminomethyl-benzoate]	2%	7%
CCCOc1nn(C(=O)[N-]S(=O)(=O)c2ccccc2C(=O)OC)c(=O)n1C.[Na+] [propoxycarbazone-sodium]	3%	30%
Cc1cc(Cl)ccc1O[C@H](C)C(=O)O [mecoprop-P, (R)-2-(4-chloro-o-tolyloxy)propionic acid]	0%	35%
